The EC50 is the concentration that produces a half-maximal response.

In ChEMBL document CHEMBL4831546, “Discovery of a Potent and Orally Bioavailable Hypoxia-Inducible Factor 2α (HIF-2α) Agonist and Its Synergistic Therapy with Prolyl Hydroxylase Inhibitors for the Treatment of Renal Anemia” (J Med Chem, 2021) one finds EC50 data, which are given here for 1 compound.

In this experiment the target is Endothelial PAS domain-containing protein 1 (Homo sapiens, UniProt Q99814).
Endothelial PAS domain-containing protein 1, sequence (Q99814 whole entry, the tested form may be a part): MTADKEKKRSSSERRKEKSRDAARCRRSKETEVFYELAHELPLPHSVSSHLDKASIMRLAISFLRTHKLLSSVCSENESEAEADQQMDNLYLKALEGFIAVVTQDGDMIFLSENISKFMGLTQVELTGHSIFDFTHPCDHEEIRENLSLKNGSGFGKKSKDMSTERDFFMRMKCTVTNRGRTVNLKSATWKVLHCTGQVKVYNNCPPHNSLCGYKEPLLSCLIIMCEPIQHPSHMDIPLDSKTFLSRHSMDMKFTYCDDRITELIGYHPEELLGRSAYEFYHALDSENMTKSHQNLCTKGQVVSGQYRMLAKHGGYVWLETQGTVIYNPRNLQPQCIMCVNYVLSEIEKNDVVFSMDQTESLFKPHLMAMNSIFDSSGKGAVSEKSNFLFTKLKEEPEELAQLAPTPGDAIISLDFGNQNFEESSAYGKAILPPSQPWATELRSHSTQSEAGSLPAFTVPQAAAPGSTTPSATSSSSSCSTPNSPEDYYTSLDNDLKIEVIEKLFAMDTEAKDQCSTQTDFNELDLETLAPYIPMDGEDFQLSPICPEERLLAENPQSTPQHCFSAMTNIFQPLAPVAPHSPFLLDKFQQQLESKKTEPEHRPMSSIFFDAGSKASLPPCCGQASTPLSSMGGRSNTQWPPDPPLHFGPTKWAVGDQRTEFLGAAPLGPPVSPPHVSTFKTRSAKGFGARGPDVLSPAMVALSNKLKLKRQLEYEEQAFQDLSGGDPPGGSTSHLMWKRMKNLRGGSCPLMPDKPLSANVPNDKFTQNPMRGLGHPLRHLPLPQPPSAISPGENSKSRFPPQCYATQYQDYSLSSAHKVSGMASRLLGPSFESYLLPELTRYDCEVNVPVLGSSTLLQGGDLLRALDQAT

Description: Agonist activity at HIF-2alpha (unknown origin) expressed in 786-O cells measured after 24 hrs by HRE based luciferase reporter gene assay

Compound `Clc1cc(Cl)cc(Nc2nsc3ccccc23)c1` yielded a half-maximal effective concentration (EC50) of 2920 nM.
